Experimental data reported in patent US11266645B2, “Methods for treating lymphoma” (Alexion Pharmaceuticals, Inc., priority 2018, dated 2022).
Where two headings read alike, the source gives them in different places.

How the values were obtained:
[1] = test system: JAK/STAT signaling (JAK1, JAK3, and TYK2 dependent); assay: Whole blood IL-2, IL-4, IL-6 stimulated STAT phosphorylation after oral dosing; assay type: cell-based, human; details: for IC50: Homo sapiens
Experimental: For PD assessments, serial blood samples were drawn into lithium-heparin vacutainer tubes on Day 1 prior to dosing and again at 0.5, 1, 2, and 4 hours post-dose; on Day 8 at pre-dose and 2 hours post-dose; and Day 28 prior to dosing. Multiple assays were performed using the Day 1 and Day 8 PD samples. SYK-mediated BCR signaling in whole blood was measured prior to and post-dosing by stimulating 100 μL whole blood with 2 μL of anti-human IgD (IgG fraction) and 10 μg anti-human IgM for 10 minutes at 37° C., measuring the induction of pSYK Y525/526, pAKT S473, and pERK Y204. Similarly, whole blood was stimulated with 10 ng/mL of IL-2 (JAK1/3-dependent), IL-4 (JAK1/3-dependent), IL-6 (JAK1/TYK2-dependent) or GM-CSF (JAK2-dependent) for 20 minutes, measuring the induction of pSTAT5 Y694 in T-cells and NK cells, the induction of pSTAT6 Y641 in B cells, T-cells, NK cells, and monocytes, the induction of pSTAT3 Y705 in monocytes, B cells, and T-cells, and the induction of pSTAT5 Y694 in monocytes, respectively. The technical details for these assays were described in Coffey, G., et al., J Pharmacol Exp Ther, 2014. 351(3): p. 538-48. With blood samples from the CLL patients only, tumor cell surface expression of CD5, CD69, CD86, and CXCR4 pre-dose on days 1 and 28 were monitored. The recommended volume of antibodies were applied directly to 100 μL whole blood and incubated for 1 hour at room temperature. Afterwards, 4 mL of BD Lyse/Fix reagent was added to the blood to lyse red blood cells and fix the remaining leukocytes, followed by washing and FACS analysis. For each assay, data were collected using an LSR II instrument (BD Bioscience, San Jose, Calif.) and analyzed using Flowjo software (Flowjo LLC, Ashland, Oreg.). […]
The data were analyzed using the statistical language R and the accessory packages ggplot2 (Wickham, H., Elegant Graphics for Data Analysis. 2016: Springer-Verlag) and drc (Ritz, C., et al., Dose-Response Analysis Using R. PLoS One, 2015. 10(12): p. e0146021). For cell signaling assays, percent inhibition was determined by normalizing the receptor-induced phosphorylation events mean fluorescent intensity (MFI) to that of pre-dose receptor-induced MFI. The resulting relative activities were analyzed by nonlinear regression to a 3-parameter log-logistic function with an upper and lower limit set at 100 and 0%. […] Statistically significant differences between the healthy and patient serum marker at all cycles (Cycle 1 Day 1, Cycle 1 Day 8, and Cycle 2 Day 1) were detected by paired t test. […] The significance of the relation between maximum tumor response and change in a specific biomarker was evaluated using Spearman-Rank-correlation and p value.

[2] = test system: PMA-mediated B cell pERK Y204; assay: PMA-mediated B cell pERK Y204; assay type: cell-based, human; details: patient samples
Experimental: The potency and selectivity for target inhibition following oral dosing in patients using a variety of whole blood assays was measured.

[3] = test system: serum markers of inflammation; assay: Serum protein markers of inflammation (multiplexed luminex); assay type: in vivo, human
Experimental: Whole blood for isolation of serum was collected prior to dosing on days 1, 8, and 28 to measure changes in protein markers of inflammation and immune function. Serum samples were snap-frozen on dry ice immediately following its separation and stored at −80° C. Samples were analyzed using a multiplexed luminex-based technology (Myriad RBM, Austin, Tex.), utilizing the companies ImmunoMap (40 analytes) and InflammationMap (45 analytes) platforms. Serum from healthy donors was used as control.
The data were analyzed using the statistical language R and the accessory packages ggplot2 (Wickham, H., Elegant Graphics for Data Analysis. 2016: Springer-Verlag) and drc (Ritz, C., et al., Dose-Response Analysis Using R. PLoS One, 2015. 10(12): p. e0146021). For cell signaling assays, percent inhibition was determined by normalizing the receptor-induced phosphorylation events mean fluorescent intensity (MFI) to that of pre-dose receptor-induced MFI. The resulting relative activities were analyzed by nonlinear regression to a 3-parameter log-logistic function with an upper and lower limit set at 100 and 0%. For the analysis of immune and inflammation markers in serum, the varying concentration units were converted to a common scale in pg/mL. Values below and in excess of the detection limit were replaced by half the detection limit and the upper limit, respectively. For missing values, the median value for each marker from the treatment group was imputed. Statistically significant differences between the healthy and patient serum marker at all cycles (Cycle 1 Day 1, Cycle 1 Day 8, and Cycle 2 Day 1) were detected by paired t test. Dimension reduction of expression of the biomarker table in healthy and patient serum was performed using linear discriminant analysis, as is implemented in R. For the biomarkers and tumor response, reduction in biomarker after treatment was normalized to that before treatment and correlated to the maximal tumor response (growth or reduction), representing the ratio of minimal tumor area following treatment and tumor area before treatment. The significance of the relation between maximum tumor response and change in a specific biomarker was evaluated using Spearman-Rank-correlation and p value.

[4] = Blood absolute lymphocyte counts (ALC); assay type: in vivo, human; details: 5 CLL/SLL patients
From the text: Treatment-related increases in blood absolute lymphocyte counts (ALC) occurred in both CLL/SLL and FL patients (FIG. 6A and FIG. 6B). Of the 6 CLL/SLL patients treated with cerdulatinib, 5 remained on drug long enough to monitor ALC, which were elevated 0.3-10 fold relative to pre-treatment. For two of these patients, treatment-related changes in tumor cell surface activation and homing markers were additionally evaluated (FIG. 7A and FIG. 7B). As shown in the ALC plots over time (FIG. 6A and FIG. 6B), by the beginning of the second cycle of treatment (Cycle 2 Day 1; C2D1) there was considerable mobilization of tumor cells into the peripheral blood.

SU-DHL6 xenograft = SU-DHL6 xenograft in Nude mice; assay type: in vivo; details: tumors treated with cerdulatinib
Experimental: Xenograft studies in Nude mice were performed to evaluate cerdulatinib and venetoclax in combination. Nude mice were inoculated with […] SU-DHL6 cells subcutaneously. Once tumors reached 200 mm^3, the mice were randomized into 4 groups: vehicle, cerdulatinib alone, venetoclax alone, or a combination of cerdulatinib and venetoclax.

[5] = test system: U-CLL cells and M-CLL cells; assay: IL-4 treated U-CLL and M-CLL cells, immunoblotting; assay type: cell-based, human; details: 1 μM, 10 ng/mL IL-4, 24 hours
Experimental: U-CLL cells and M-CLL cells were treated with and without 10 ng/mL IL-4 for 24 hours in the presence or absence of 1 μM cerdulatinib. Immunoblotting was used to protein expression among the different treatments. […] FIGS. 10A-10G, 11A-11G and 12A-12G show the fold changes of the protein expression.

[6] = test system: CLL tumor cell surface CD5, CD69, CD86, CXCR4; assay: CLL tumor cell surface marker expression by FACS; assay type: in vivo, human; details: C2D1 vs C1D1, two CLL patients
Experimental: For PD assessments, serial blood samples were drawn into lithium-heparin vacutainer tubes on Day 1 prior to dosing and again at 0.5, 1, 2, and 4 hours post-dose; on Day 8 at pre-dose and 2 hours post-dose; and Day 28 prior to dosing. Multiple assays were performed using the Day 1 and Day 8 PD samples. SYK-mediated BCR signaling in whole blood was measured prior to and post-dosing by stimulating 100 μL whole blood with 2 μL of anti-human IgD (IgG fraction) and 10 μg anti-human IgM for 10 minutes at 37° C., measuring the induction of pSYK Y525/526, pAKT S473, and pERK Y204. Similarly, whole blood was stimulated with 10 ng/mL of IL-2 (JAK1/3-dependent), IL-4 (JAK1/3-dependent), IL-6 (JAK1/TYK2-dependent) or GM-CSF (JAK2-dependent) for 20 minutes, measuring the induction of pSTAT5 Y694 in T-cells and NK cells, the induction of pSTAT6 Y641 in B cells, T-cells, NK cells, and monocytes, the induction of pSTAT3 Y705 in monocytes, B cells, and T-cells, and the induction of pSTAT5 Y694 in monocytes, respectively. The technical details for these assays were described in Coffey, G., et al., J Pharmacol Exp Ther, 2014. 351(3): p. 538-48. With blood samples from the CLL patients only, tumor cell surface expression of CD5, CD69, CD86, and CXCR4 pre-dose on days 1 and 28 were monitored. The recommended volume of antibodies were applied directly to 100 μL whole blood and incubated for 1 hour at room temperature. Afterwards, 4 mL of BD Lyse/Fix reagent was added to the blood to lyse red blood cells and fix the remaining leukocytes, followed by washing and FACS analysis. For each assay, data were collected using an LSR II instrument (BD Bioscience, San Jose, Calif.) and analyzed using Flowjo software (Flowjo LLC, Ashland, Oreg.). Data were normalized to the induction of each parameter prior to dosing on day 1 to generate percent inhibition post-dosing.

CCS(=O)(=O)N1CCN(c2ccc(Nc3ncc(C(N)=O)c(NC4CC4)n3)cc2)CC1 [cerdulatinib, 4-(cyclopropylamino)-2-((4-(4-(ethylsulfonyl)piperazin-1-yl)phenyl)amino)pyrimidine-5-carboxamide]
IC50 ([1]; B-cell, B cells, patients, read-out: average IC50, IL-4 signaling (pSTAT6 Y641)): 1080 nM
IC50 ([1]; B-cell, B cells, patients, read-out: average IC50, IL-6 signaling (pSTAT3 Y705)): 220 nM
IC50 ([1]; po, depending on the cell lineage, whole blood, read-out: IC50, measures of JAK/STAT signaling): 190 to 1110 nM
inhibition of IL-2, IL-4, and IL-6 signaling ([1]; concentration-dependent): potently inhibited
inhibition of PMA-mediated B cell pERK Y204 [2]: No inhibition
serum MIP30, CRP, and VCAM1 ([3]; CLL/SLL and FL patients): significantly reduced
MPO and CD40 serum levels ([3]; CLL/SLL patients, reduced at baseline): normalized
serum BDNF ([3]; FL patients, reduced at baseline): normalized
inhibition of serum inflammation markers ([3]; aggressive lymphomas (DLBCL/MCL)): Limited inhibition
serum HCC4, IL18, and MIG ([3]; elevated at baseline, both patient groups): unaffected
ALC elevation relative to pre-treatment [4]: 0.3-10 fold
Bim expression in tumors (SU-DHL6 xenograft): increase
MCL-1 in tumors (SU-DHL6 xenograft): no change
IL-4 induced increase of GABA1, FOXP1, SOCS1, and SOCS3 protein expression [5]: suppresses
CD5 expression [6]: reduced
CXCR4 expression [6]: enhanced
expression of surface activation markers CD69 and CD86 [6]: decreased expression
